From patent publication US20220025324A1, “METHODS OF PRODUCING VENOUS ANGIOBLASTS AND SINUSOIDAL ENDOTHELIAL CELL-LIKE CELLS AND COMPOSITIONS THEREOF” (University Health Network, priority 2018, published 2022)

Tests used:
Assay type in all cases: cell-based, human
[1] = system: hPSC-derived day 4 mesoderm; assay: VEGF and bFGF titration on day 4 mesoderm cultures, day 6 flow cytometry for CD34+ angioblast subpopulations
Procedure: (1A) Schematic of EB-based hPSC differentiation to venous angioblasts. (1B) Heatmap comparing kinetic gene expression profiles of day 0-8 bulk EB populations and day 8 CD34+ MACS enriched angioblasts following venous differentiation (day 4-8 10 ng/ml VEGFA, 30 ng/ml bFGF 10 μm GSI) as in (1A). High (dark) and low (light) expression levels are indicated for each gene. (1C) Representative flow cytometric analysis of day 4 KDR+CD56+CD235a-mesodermal cells and day 8 CD34+CD31 low venous angioblasts before and after MACS enrichment. […] For all qRT-PCR analysis, expression values are normalized to levels of the housekeeping gene TBP. Error bars represent SEM.
Previous work from our group (Ditadi et al., 2015) and others (Zhang et al., 2017), has shown that VEGF, bFGF, NOTCH signaling play a role in the specification of arterial and venous vascular fates in hPSC differentiation cultures. The effects of VEGF signaling in promoting arterial and venous development were assessed. To address this, different concentrations of VEGF (0 to 100 ng/ml) were added to day 4 cultures that contained low amounts of bFGF (5 ng/ml) and the resulting day 6 populations were analyzed for the presence of CD34^+CD31^+ vascular cells and CD184^+CD73^lowCD34^+ and CD184^−CD73^+CD34^+ populations that we have previously shown contain progenitors specified to arterial and venous fates respectively.

[2] = system: venous angioblast-derived populations; assay: LSEC-LC specification of venous angioblast-derived populations, RT-qPCR of LSEC associated markers; settings: for expression of LSEC associated markers (LYVE1, STAB2, FCGR2B, F8): treated every 2 days for 4 days, RT-qPCR of bulk populations
Procedure: (3A) Schematic of EB-based hPSC-derived day 4 mesoderm differentiation to venous angioblasts, endothelial cells and LSEC-like cells (LSEC-LCs). […] For all qRT-PCR analysis, expression values are normalized to levels of the housekeeping gene TBP. Error bars represent SEM.
The resulting bulk populations were analyzed for expression of LSEC associated markers by RT-qPCR (FIG. 3B). Based on immunofluorescence (Strauss et al., 2017), flow cytometry (Fomin et al., 2013), bulk RNA-seq (Shahani et al., 2014), and recent single cell RNA-seq of human liver (MacParland et al., 2018) studies, human LSECs are distinguished by the co-expression of surface receptors, secreted proteins, and transcription factors including, LYVE1, CD14, CD32B (FCGR2B), CD36, CD54 (ICAM1), CD73, CD144, CD206 (MRC1), STAB1, STAB2, CLEC1B, PLAVP, GATA4 and F8 among others. Additionally, they express lower levels of canonical vascular markers such as CD31(PECAM1), CD34, CD105, CD309 (KDR), and VWF than portal arterial and venous endothelial cells. As a candidate marker set we focused the analysis on expression of scavenger receptors LYVE1, STAB2, CD32B/FCGR2B, F8, and VWF.

arterial and venous ECs = assay: IOX2 treatment of arterial and venous LSEC-LCs (HIF1a signalling), flow cytometry and qRT-PCR
Text: FIG. 6: CD32B Expression is Regulated by Hypoxia/HIFla Signalling. […] (6B) Representative flow cytometric analysis of normoxic cultured CD31+ arterial LSEC-LCs treated with DMSO or IOX2 at increasing doses (days 12-16). (6C) qRT-PCR analysis of LSEC markers in day 16 arterial and venous LSEC-LCs cultured under normoxia conditions treated with DMSO or increasing IOX2 doses for 4 days (ANOVA with Bonferroni test, *p<0.05, comparing arterial and venous cells at give IOX2 doses). (6D) Representative flow cytometric analysis of day 16 arterial and venous CD31+ LSEC-LCs cultured under normoxic and hypoxic conditions with and without IOX2. For all qRT-PCR analysis, expression values are normalized to levels of the housekeeping gene TBP. Error bars represent SEM.
To further investigate the role of oxygen on LSEC marker expression, we next interrogated the HIFI a signaling pathway as a probable mechanistic regulator of EC gene expression.

[3] = system: tdRFP+ CD31+ CD32+ LYVE1+ cells; assay: Fenestration by scanning electron microscopy after latrunculin A stimulation
Text: FIG. 11: hPSC-Derived, In Vivo Matured LSECs are Fenestrated and Scavenge E. coli Bioparticles. (11A) Representative scanning electron microscopic images of primary human insitu vasculature imaged on the cut surface of fresh fixed liver tissue. LSECs, terminal portal venous endothelium and hepatic artery endothelium are shown for comparison of presence (indicated by white arrows) or absence of fenestrations. (11B) Representative scanning electron microscopic images of day 8 venous angioblast-derived, in vivo-matured, FACS-isolated based on indicated marker panels, overnight-cultured, treated for 30 minutes with or without fenestration (white arrows) stimulating 0.1 μg/ml Latrunculin A, fixed and processed for SEM. Imaging conditions and scale bar are indicated on each image. (11C) Quantification of fenestrated cells (>10 fenestrations arranged in a defined sieve plate cluster), endothelial cells (smooth edged cells with angiogenic lateral sprouts free from fibroblast-like adhesions), non-endothelial cells (fibroblast-like cells and rounded cells) was performed manually on the indicated numbers of cells from a total of at least 4 independent replicates pooling the data. Comparative in vitro derived cells including venous LSEC-LCs sorted as CD31+CD32+LVYE1+ on day 18, replated and cultured for an additional 10 days in addition to standard multi-donor derived HUVECs that were also quantified with and without Latrunculin A stimulation. (11D-11E) Quantification of fenestration size (longest diameter) in (11C) primary human LSECs in situ (black), venous angioblast-derived, in vivo matured and isolated LSECs with (white) and without (grey) latrunculin A stimulation. (11E) Quantification of surface area of LSECs covered by fenestrations before and after latrunculin stimulation. Error bars represent SEM. […]

[4] = bFGF up to 30 ng/ml with VEGF 100 ng/ml, days 4-6
[5] = arterial and venous ECs, normoxia, 4 days, qRT-PCR
[6] = tdRFP+ CD31+ CD32+ LYVE1+ cells, 30 minutes stimulation

VEGF
bias of CD34+ cells to arterial or venous subpopulation ([1]; 100 ng/ml VEGF, 5 ng/ml bFGF, day 6): predominantly CD184^+CD73^low arterial-like population | frequency of CD34+ cells ([1]; VEGF 0 to 100 ng/ml added to day 4 cultures with 5 ng/ml bFGF, day 6): significant and dose dependant increase

NC(=O)c1ccc(-c2nc(-c3ccc4c(c3)OCO4)c(-c3ccccn3)[nH]2)cc1 [SB431542, 4-(4-(benzo[d][1,3]dioxol-5-yl)-5-(pyridin-2-yl)-1H-imidazol-2-yl)benzamide]
expression of LSEC associated markers (LYVE1, STAB2, FCGR2B, F8) [2]: induced the expression of STAB2 and FCGR2B but not LYVE1

bFGF: bFGF (also referred to as FGF2), growth factor
size of the CD34+CD184+CD73low subpopulation [1, 4]: decrease | size of the CD34+CD184-CD73- subpopulation [1, 4]: increase | size of the total CD34+ population [1, 4]: modest increase

O=C(O)CNC(=O)c1c(O)c2ccccc2n(Cc2ccccc2)c1=O [IOX2]
conversion of CD31+ ECs to LYVE1+CD32+ LSEC-LCs (arterial and venous ECs; 4-day application under hypoxic conditions, by day 16): highly efficient conversion | CD32 protein (arterial and venous ECs; CD31+LYVE1+ arterial ECs under elevated oxygen conditions, increasing doses, days 12-16): dose dependant upregulation | FCGR2B and F8 expression (arterial and venous ECs; [5]): upregulated | LYVE1 expression (arterial and venous ECs; [5]): significantly downregulated | STAB2 expression (arterial and venous ECs; [5]): did not change

C/C1=C/C(=O)O[C@@H]2C[C@@H](CC[C@H](C)/C=C\C=C\CC1)O[C@@](O)([C@@H]1CSC(=O)N1)C2 [latrunculin A]
induction of fenestrations ([3]; HUVECs and extended culture venous LSEC-LCs): nor were they able to be induced to form fenestrations | cell surface covered by stimulated fenestrations [3, 6]: approximately 40% | size of the fenestration type that accounts for the increase [3, 6]: ~60 nm

B1: VEGFC: VEGFC growth factor, 0 or 100 ng/ml (protein, UniProt P49767 112-227, looked up)
Vascular endothelial growth …: AHYNTEILKSIDNEWRKTQCMPREVCIDVGKEFGVATNTFFKPPCVSVYRCGGCCNSEGLQCMNTSTSYLSKTLFEITVPLSQGPKPVTISFANHTSCRCMSKLDVYRQVHSIIRR
expression of lymphatic markers PROX1 and FLT4 ([2]; VEGFC 100 ng/ml, 4 days, RT-qPCR): increased | expression of LSEC associated markers (LYVE1, STAB2, FCGR2B, F8) [2]: modestly enhance the expression of some LSEC markers
